This assay deals with T1, RORc ligand binding domain (Homo sapiens, UniProt P51449).
T1 construct: host or cells: E. coli
T1 sequence (P51449 269-508 limits assumed): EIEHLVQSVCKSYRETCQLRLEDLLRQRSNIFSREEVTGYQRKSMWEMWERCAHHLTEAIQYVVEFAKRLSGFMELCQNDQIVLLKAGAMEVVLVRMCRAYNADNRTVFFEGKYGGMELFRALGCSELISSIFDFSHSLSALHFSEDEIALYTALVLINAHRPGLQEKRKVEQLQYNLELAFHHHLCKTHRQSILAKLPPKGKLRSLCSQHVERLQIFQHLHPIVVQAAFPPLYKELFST
Kind of assay: In vitro RORc ligand binding assay (25-[3H]hydroxycholesterol displacement, filter binding). The note with it: 6 nM 25-[3H]hydroxycholesterol, 0.6 ug/mL RORc receptor, 3 h at 25° C. The procedure:
Example 17: In Vitro RORc Ligand Binding Assay
This assay was used to determine a compound's potency in inhibiting activity of RORc by determining, Kiapp, IC50, or percent inhibition values.
On day of the assay, 100 uL of 0.05% CHAPS (in deionized H2O) was added to all wells of the GFB Unifilter plate and allowed soak for 1 h. A wash buffer of 50 mM HEPES (pH 7.4), 150 mM NaCl, and 5 mM MgCl2 was prepared to wash the filter plate. To prepare an assay buffer, BSA was added to the wash buffer to reach 0.01% and DTT was added to reach 1 mM.
For IC50 mode, 10 mM compound stocks were serially diluted in DMSO with DMSO to give 20× required final concentration in DMSO (15 uL compound+30 uL DMSO). The 20× compound stocks were diluted in DMSO with Assay Buffer 4-fold to reach 5× the final test concentration in 25% DMSO (10 uL compound+30 uL Assay Buffer). Solutions were mixed by aspiration several times with a pipette set on 50 uL volume. For the assay, 10 uL of 5× compound stock solutions in 25% DMSO were added to the assay plate in duplicate.
For two point screening, 10 mM stock compound solutions were diluted in DMSO to obtain 200 uM (20× the high test concentration) and then diluted 10-fold further to reach 20 uM (20× the low test concentration). The 20× stocks were diluted 4-fold with Assay Buffer (10 uL compound+30 uL Assay Buffer) to reach 5× the test concentrations (50 uM and 5 uM) and 10 uL were added to two assay plates for the duplicate wells. With each concentration tested on 2 plates, each set of 80 compounds used 4 assay plates (1 uM and 10 uM, with n=2).
25-hydroxycholesterol (1 uM) was used to determine the level of NSB signal is prepared in DMSO as for compounds above, then diluted in Assay Buffer to give a final concentration of 5 uM. For 25-hydroxycholesterol in 25% DMSO/75% Assay Buffer; 10 uL per well was used for NSB samples. Wells for Total Binding and No Receptor sample determination contained 10 uL of 25% DMSO/75% Assay Buffer per well.
25-[^3H]hydroxycholesterol was diluted in Assay Buffer to obtain 15 nM and vortex to mix. Add 20 uL to all wells to reach 6 nM final concentration in the assay.
Stock receptor solution was diluted in assay buffer to obtain 1.5 ug/mL in Assay Buffer. 20 uL was added to all wells. For No Receptor samples, 20 uL Assay Buffer was substituted for receptor solution.
Assay plates were 96-well polypropylene V-bottom plates. 10 uL of 5× compound in 25% DMSO/75% Assay Buffer was added to Test wells. 10 uL of 25% DMSO/75% Assay Buffer was added to Total Binding or No Receptor wells. 10 uL of 5 uM 25-hydroxycholesterol in 25% DMSO/75% Assay Buffer was added to NSB wells. 20 uL of 15 nM 25-[^3H]hydroxycholesterol prepared in Assay Buffer was added to all wells. 20 uL of 1.5 ug/mL RORc receptor was added to wells (or […] Assay Buffer to No R wells). Following addition to the wells, the plates were incubated 3 h at 25° C.
Using a Packard Filtermate Harvester, the filter plate were washed 4 times following transfer of the incubated samples. Plates were dry-filtered completely (2 h at 50° C. or overnight at room temperature). 50 uL Microscint 0 was added to all wells and read on Topcount protocol Inverted.
Final concentrations were as follows: 50 mM HEPES buffer (pH 7.4); 150 mM NaCl; 1 mM DTT; 5 mM MgCl2; 0.01% BSA; 5% DMSO; 0.6 ug/mL RORc receptor; 6 nM 25-[^3H]hydroxycholesterol. For NSB wells, 1 uM 25-hydroxycholesterol was also present.

Turning to `Cc1c[nH]nc1C1CN(C(=O)[C@@]23CC[C@@H](c4cc(-c5ccccc5F)nnc42)C3(C)C)C1` [Example 179, ((5R,8R)-3-(2-fluorophenyl)-9,9-dimethyl-5,6,7,8-tetrahydro-5,8-methanocinnolin-8-yl)(3-(4-methyl-1H-pyrazol-3-yl)azetidin-1-yl)methanone], the IC50 was found to be 2810 nM. The figure for `CC(=O)N[C@H]1CCN(C(=O)[C@]23CC[C@H](c4cc(-c5c(F)cccc5F)nnc42)C3(C)C)C1` [Example 225, N-((S)-1-((5S,8S)-3-(2,6-difluorophenyl)-9,9-dimethyl-5,6,7,8-tetrahydro-5,8-methanocinnoline-8-carbonyl)pyrrolidin-3-yl)acetamide] is 2720 nM; for `CC1(C)[C@@H]2CC[C@@]1(C(=O)N1CCC[C@@H]1CO)c1nnc(-c3c(F)cccc3F)cc12` [Example 204, ((5S,8S)-3-(2,6-difluorophenyl)-9,9-dimethyl-5,6,7,8-tetrahydro-5,8-methanocinnolin-8-yl) ((R)-2-(hydroxymethyl)pyrrolidin-1-yl)methanone] it is 600 nM. With `CC1(C)[C@@H]2CC[C@@]1(C(=O)NCC(F)F)c1nnc(-c3ccccc3F)cc12` [Example 130, (5S,8S)-N-(2,2-difluoroethyl)-3-(2-fluorophenyl)-9,9-dimethyl-5,6,7,8-tetrahydro-5,8-methanocinnoline-8-carboxamide] the figure was 1120 nM; with `CCN(C[C@@]12CC[C@@H](c3cc(-c4c(F)cccc4F)nnc31)C2(C)C)c1cccc(=O)[nH]1` [Example 301, 6-((((5R,8S)-3-(2,6-difluorophenyl)-9,9-dimethyl-5,6,7,8-tetrahydro-5,8-methanocinnolin-8-yl)methyl)(ethyl)amino) pyridin-2(1H)-one], 12 nM; with `Cc1c(-c2ccccc2F)nnc2c1[C@H]1CC[C@]2(C)C1(C)C` [Example 33, (5S,8R)-3-(2-fluorophenyl)-4,8,9,9-tetramethyl-5,6,7,8-tetrahydro-5,8-methanocinnoline], 1220 nM. The figure for `CC1(C)[C@@H]2CC[C@@]1(C(=O)N1CCCC1CO)c1nnc(-c3c(F)cccc3F)cc12` (stereo in doubt) [Example 215, ((5S,8S)-3-(2,6-difluorophenyl)-9,9-dimethyl-5,6,7,8-tetrahydro-5,8-methanocinnolin-8-yl) ((R)-2-(hydroxymethyl)pyrrolidin-1-yl)methanone] is 1130 nM; for `CC1(C)[C@@H]2CC[C@@]1(C(=O)NCC1CC1)c1nnc(-c3c(F)cccc3F)cc12` [Example 202, (5S,8S)-N-(cyclopropylmethyl)-3-(2,6-difluorophenyl)-9,9-dimethyl-5,6,7,8-tetrahydro-5,8-methanocinnoline-8-carboxamide] it is 193 nM. `CC(C)(C)OC(=O)NCCC1CN(C(=O)[C@]23CC[C@H](c4cc(-c5c(F)cccc5F)nnc42)C3(C)C)C1` [Example 168, tert-butyl (2-(1-((5S,8S)-3-(2,6-difluorophenyl)-9,9-dimethyl-5,6,7,8-tetrahydro-5,8-methanocinnoline-8-carbonyl)azetidin-3-yl)ethyl)carbamate] yielded an IC50 of 2970 nM. `C[C@@H]1CN(C[C@@]23CC[C@@H](c4cc(-c5c(F)cccc5F)nnc42)C3(C)C)C(=O)O1` [Example 314, (R)-3-(((5R,8S)-3-(2,6-difluorophenyl)-9,9-dimethyl-5,6,7,8-tetrahydro-5,8-methanocinnolin-8-yl)methyl)-5-methyloxazolidin-2-one] came in with an IC50 of 454 nM. With `CN(C(=O)OC(C)(C)C)[C@@]12CC[C@@H](c3cc(-c4c(F)cccc4F)nnc31)C2(C)C` [Example 281, tert-butyl ((5R,8R)-3-(2,6-difluorophenyl)-9,9-dimethyl-5,6,7,8-tetrahydro-5,8-methanocinnolin-8-yl)(methyl)carbamate] the figure was 218 nM; with `CC1(C)[C@H]2CC[C@]1(NS(C)(=O)=O)c1nnc(-c3c(F)cccc3F)cc12` [Example 282, N-((5R,8R)-3-(2,6-difluorophenyl)-9,9-dimethyl-5,6,7,8-tetrahydro-5,8-methanocinnolin-8-yl)methanesulfonamide], 984 nM. As to `CCNC(=O)N(CC)C[C@@]12CC[C@@H](c3cc(-c4c(F)cccc4F)nnc31)C2(C)C` [Example 288, 1-(((5R,8S)-3-(2,6-difluorophenyl)-9,9-dimethyl-5,6,7,8-tetrahydro-5,8-methanocinnolin-8-yl)methyl)-1,3-diethylurea], the IC50 was 21 nM. The figure for `CC1(C)[C@H]2CC[C@]1(CN1CC(C#N)C1)c1nnc(-c3c(F)cccc3F)cc12` [Example 326, 1-(((5R,8S)-3-(2,6-difluorophenyl)-9,9-dimethyl-5,6,7,8-tetrahydro-5,8-methanocinnolin-8-yl)methyl)azetidine-3-carbonitrile] is 1920 nM; for `CCN(C[C@@]12CC[C@@H](c3cc(-c4c(F)cccc4F)nnc31)C2(C)C)c1nnc(C)o1` [Example 148, N-(((5R,8S)-3-(2,6-difluorophenyl)-9,9-dimethyl-5,6,7,8-tetrahydro-5,8-methanocinnolin-8-yl)methyl)-N-ethyl-5-methyl-1,3,4-oxadiazol-2-amine] it is 19 nM; for `CC(=O)OC[C@]12CC[C@H](c3cc(-c4c(F)cccc4Cl)nnc31)C2(C)C` [Example 22, [(5S,8S)-3-(2-chloro-6-fluorophenyl)-9,9-dimethyl-6,7-dihydro-5,8-methanocinnolin-8(5H)-yl]methyl acetate] it is 15 nM. With `CC1(C)[C@H]2CC[C@]1(c1cnccn1)c1nnc(-c3c(F)cccc3F)cc12` [Example 161] the figure was 90 nM; with `CC1(C)[C@H]2CC[C@]1(C(=O)N1CC(F)(F)C1)c1nnc(-c3c(F)cccc3F)cc12` [Example 135, (3,3-difluoroazetidin-1-yl)((5R,8R)-3-(2,6-difluorophenyl)-9,9-dimethyl-5,6,7,8-tetrahydro-5,8-methanocinnolin-8-yl)methanone], 643 nM. The figure for `CC1(C)[C@H]2CC[C@]1(c1nnco1)c1nnc(-c3c(F)cccc3F)cc12` [Example 101] is 192 nM; for `CC1(C)[C@@H]2CC[C@@]1(C(=O)N1CCC(CCO)C1)c1nnc(-c3c(F)cccc3F)cc12` (stereo partly drawn) [Example 262, ((5S,8S)-3-(2,6-difluorophenyl)-9,9-dimethyl-5,6,7,8-tetrahydro-5,8-methanocinnolin-8-yl)(3-(2-hydroxyethyl)pyrrolidin-1-yl)methanone] it is 314 nM; for `CC1(C)[C@@H]2CC[C@@]1(C(=O)N1C[C@@H]3C[C@H]1CO3)c1nnc(-c3c(F)cccc3F)cc12` [Example 231, (1S,4S)-2-oxa-5-azabicyclo[2.2.1]heptan-5-yl((5S,8S)-3-(2,6-difluorophenyl)-9,9-dimethyl-5,6,7,8-tetrahydro-5,8-methanocinnolin-8-yl)methanone] it is 241 nM. On to `CN1C[C@@H]2C[C@H]1CN2C(=O)[C@]12CC[C@H](c3cc(-c4c(F)cccc4F)nnc31)C2(C)C` [Example 239, ((5S,8S)-3-(2,6-difluorophenyl)-9,9-dimethyl-5,6,7,8-tetrahydro-5,8-methanocinnolin-8-yl)((1S,4S)-5-methyl-2,5-diazabicyclo[2.2.1]heptan-2-yl)methanone], for which the IC50 came out at 892 nM.

For orientation: IC50 means the point on the concentration scale where inhibition reaches its midpoint. Low readings indicate higher potency, high ones lower potency.

For the origin of these results see patent US9981916B2 (Genentech, Inc., priority 2013, dated 2018).
